{"source": "patent US6069232A", "about": "“Polyfluoroalkyl tryptophan tripeptide thrombin inhibitors” (Hoechst Marion Roussel, Inc., priority 1996, dated 2000)", "key": {"[1]": {"system": "clotting time (aPTT)", "experiment": "Coagulation assay: activated partial thromboplastin time (aPTT), concentration doubling the clotting time", "parameters": "species or system rat", "settings": "calculated by simple linear regression", "protocol": "Male Sprague-Dawley rats (200-450 gm) purchased from Harlan Sprague Dawley, Inc., (Indianapolis, Ind. 46229) were used in these studies.\nActivated partial thromboplastin time (aPTT) determinations are carried out using the reagents and methods of Dade Diagnostics, Inc. (Aguada, Puerto Rico 00602). All clotting times were measured semiautomatically using a MLA-Electra 750, MLA, Inc. (Pleasantville, N.Y. 10570). The concentration required for doubling the clotting time (ID2) was calculated using simple linear regression."}, "[2]": {"molecular_target": "T1, Trypsin (Sus scrofa, UniProt P00761)", "T1 construct": "Trypsin is obtained from porcine pancreas; purchased Sigma Chemical Co; host or cells: porcine pancreas", "T1 sequence (P00761 9-231)": "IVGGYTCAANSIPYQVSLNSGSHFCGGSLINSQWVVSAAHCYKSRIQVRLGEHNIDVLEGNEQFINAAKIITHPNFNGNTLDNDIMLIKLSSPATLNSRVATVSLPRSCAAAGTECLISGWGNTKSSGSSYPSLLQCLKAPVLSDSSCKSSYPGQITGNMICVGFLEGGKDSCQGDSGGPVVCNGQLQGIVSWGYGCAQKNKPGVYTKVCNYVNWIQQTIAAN", "experiment": "Trypsin inhibition, spectrophotometric assay (p-nitroaniline liberation)", "assay_type": "biochemical", "settings": "trypsin from porcine pancreas; substrate Benzoyl-Arginine-p-nitroanilide; 0.05M Tris, 0.05M CaCl2, pH 7.8; 30° C.", "protocol": "Chem., 329, p. 278 (1962), immediately described above. Trypsin is obtained from porcine pancreas, available from Sigma Chemical Co. wherein the activity is expressed in Sigma units. The specific activity of the trypsin source is 15900 Sigma units per mg of protein where one unit is defined as the amount of enzyme that gives an increase in absorbance at 253 nm of 0.001 per min as the result of the hydrolysis of Benzoyl-Arginine-Ethylester, at pH 7.6 and 25° C. The substrate is the peptide Benzoyl-Arginine-p-nitroanilide (KM =[…]), the buffer is 0.05M Tris, 0.05M CaCl2, pH 7.8 (final volume 1 mL) and the assay is carried out at a temperature of 30° C. with 8 Sigma units of enzyme required per assay. Kinetic characterization of immediate inhibitors is by means of the Dixon plot, whereas the characterization of slow- and/or tight-binding inhibitors uses data analysis techniques reviewed by Williams and Morrison. Kinetic characterization of time dependent inhibitors is by means of a Kitz & Wilson plot."}, "[3]": {"system": "aPTT in rat plasma", "experiment": "In vivo measurement of aPTT in rat plasma after injection", "settings": "n = 2", "description": "Activated partial thromboplastin time (aPTT) measurements were made in rat plasma at various times after injecting the animals with TFA·HNMe-D-Phe-L-Pro-D,L-Trp--CF2 CF3. Male Sprague-Dawley rats (200-450 g) purchased from Harlan Sprague Dawley, Inc., (Indianapolis, Ind. 46229) are used in these studies. […]"}, "[4]": {"molecular_target": "T2, Thrombin (Homo sapiens, UniProt P00734)", "T2 construct": "Thrombin is obtained from human plasma; purchased Sigma Chemical Co; host or cells: human plasma", "experiment": "Thrombin inhibition, spectrophotometric assay (p-nitroaniline liberation)", "assay_type": "biochemical", "settings": "thrombin from human plasma; substrate Sarcosyl-Proline-Arginine-p-nitroanilide; 0.1M Tris pH 7.4; 30° C.", "protocol": "Chem., 329, p. 278 (1962), in which the liberation of p-nitroaniline is determined by measuring the increase in absorbance at 405 nm (ε=10800M^-1 cm^-1). Thrombin is obtained from human plasma, available from Sigma Chemical Co. wherein the activity is expressed in NIH units. One vial contains 290 units (specific activity=3000 units per mg of protein) as a lyophilized powder which is reconstituted with 1 mL of water. The substrate is the chromophoric peptide, Sarcosyl-Proline-Arginine-p-nitroanilide (Km =0.9 mM), the buffer is 0.1M Tris, pH 7.4 (final volume 1 mL) and the assay is carried out at a temperature of about 30° C. with 0.029 NIH units of enzyme required per assay. Kinetic characterization of immediate inhibitors is by means of the Dixon plot, whereas the characterization of slow- and/or tight-binding inhibitors uses data analysis techniques reviewed by Williams and Morrison. Kinetic characterization of time dependent inhibitors is by means of a Kitz & Wilson plot, Kitz R. and Wilson I. B., J. Biol. Chem., 237, 3245-3249 (1962)."}}}
{"smiles": "CN[C@H](Cc1ccccc1)C(=O)N1CCC[C@H]1C(=O)NC(Cc1c[nH]c2ccccc12)C(=O)C(F)(F)C(F)(F)F.O=C(O)C(F)(F)F", "note": "(stereo partly drawn) [TFA.HNMe-D-Phe-L-Pro-D,L-Trp-CF2 CF3, L-Prolinamide, N-methyl-D-phenylalanyl-N-[3,3,4,4,4-pentafluoro-1-(1H-indol-3-ylmethyl)-2-oxobutyl]-, mono(trifluoroacetate)]", "values": [{"measurement": "ID2 (concentration required for doubling the clotting time)", "setting": "[1]", "value": 44.9, "unit": "µM"}, {"measurement": "Ki", "setting": "[2]", "value": "~100", "unit": "µM"}, {"measurement": "aPTT", "setting": "[3]; 5 mg/kg i.v., 0 min. after dosing", "value": 21.2, "unit": "s"}, {"measurement": "aPTT", "setting": "[3]; 5 mg/kg i.v., 5 min. after dosing", "value": 19.0, "unit": "s"}, {"measurement": "aPTT", "setting": "[3]; 5 mg/kg i.v., 15 min. after dosing", "value": 22.7, "unit": "s"}, {"measurement": "aPTT", "setting": "[3]; 5 mg/kg i.v., 30 min. after dosing", "value": 18.6, "unit": "s"}, {"measurement": "aPTT", "setting": "[3]; 5 mg/kg i.v., 60 min. after dosing", "value": 17.6, "unit": "s"}, {"measurement": "aPTT", "setting": "[3]; 10 mg/kg i.v., 0 min. after dosing", "value": 18.8, "unit": "s"}, {"measurement": "aPTT", "setting": "[3]; 10 mg/kg i.v., 5 min. after dosing", "value": 17.4, "unit": "s"}, {"measurement": "aPTT", "setting": "[3]; 10 mg/kg i.v., 15 min. after dosing", "value": 18.0, "unit": "s"}, {"measurement": "aPTT", "setting": "[3]; 10 mg/kg i.v., 30 min. after dosing", "value": 15.7, "unit": "s"}, {"measurement": "aPTT", "setting": "[3]; 10 mg/kg i.v., 60 min. after dosing", "value": 12.6, "unit": "s"}, {"measurement": "aPTT", "setting": "[3]; 30 mg/kg i.p., 0 min. after dosing", "value": 19.2, "unit": "s"}, {"measurement": "aPTT", "setting": "[3]; 30 mg/kg i.p., 5 min. after dosing", "value": 20.8, "unit": "s"}, {"measurement": "aPTT", "setting": "[3]; 30 mg/kg i.p., 15 min. after dosing", "value": 19.2, "unit": "s"}, {"measurement": "aPTT", "setting": "[3]; 30 mg/kg i.p., 30 min. after dosing", "value": 19.4, "unit": "s"}, {"measurement": "aPTT", "setting": "[3]; 30 mg/kg i.p., 60 min. after dosing", "value": 18.7, "unit": "s"}, {"measurement": "Ki", "setting": "[4]", "value": 0.45, "unit": "µM"}]}
